Data from patent US4510136A (priority 1983, dated 1985).

Legend:
Pyricularia oryzae = assay: whole plant or invertebrate; format: in vivo; conditions: Pyricularia oryzae, 168 h, read-out: % Control of Rice Blast, 100 ppm spray, day before inoculation
Helminthosporium maydis = assay: Southern corn leaf blight control on sprayed corn seedlings (Example 83); format: in vivo; conditions: Bipolaris maydis, 192 h, 100 ppm spray, day before inoculation
Procedure, shortened: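 Compounds in 6% acetone at 100 ppm in water with 250 ppm TREM 014 surfactant, sprayed to run-off on corn seedlings; next day inoculated with spore suspension. 24 h at saturated humidity and 20°, then 7 days in growth room before disease rating; phytotoxicity scored as growth reduction.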

Venturia inaequalis = assay: Apple scab control on sprayed apple seedlings (Example 82); format: in vivo; conditions: Venturia inaequalis, 100 ppm spray, day before inoculation
Rhizoctonia solani = assay: Rice sheath blight control on sprayed rice seedlings (Example 87); format: in vivo; conditions: Rhizoctonia solani, 168 h, 100 ppm spray, day before inoculation
Procedure, shortened: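 Rice seedlings were sprayed to run-off with 100 ppm compound suspended in water with 6% acetone and 250 ppm TREM 014 surfactant. They were inoculated next day with bran plus R. solani mycelium. Sheath blight was rated after 7 days in a growth room.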

Cercospora arachidicola = assay: Peanut early leafspot control on sprayed peanut seedlings (Example 84); format: in vivo; conditions: Mycosphaerella arachidis, 360 h, 100 ppm spray, day before inoculation; read-out: % Control Peanut Easly Leafspot
Monilinia fructicola = assay: Stone fruit brown rot control on dipped canned peach halves (Example 86); conditions: 120 h, 100 ppm dip, percent growth inhibition of colonies after five days
Description: Several compounds of the previous examples were again dissolved in acetone in an amount equal to 5% of the final volume and then suspended at a concentration of 100 ppm in purified water containing 700 ppm of the surfactant TREM 014 (polyhydric alcohol esters). Canned peach halves were dipped in this suspension for three minutes and then placed to air dry in sterile containers. Upon drying, the peach halves were inoculated with two pieces of Monilinia fructicola mycelium, causal agent of stone fruit brown rot, and incubated in the sterile containers for five days. At that time the radii of the colonies' growth were measured on each peach. […] Percent disease control (percent growth inhibition of colonies on treated peaches as compared to that of colonies on untreated peaches) is expressed in the table below.

[1] = system: Puccinia recondita var. tritici; assay: Wheat leaf rust control on sprayed wheat seedlings (Example 79); format: in vivo; conditions: Puccinia recondita, 168 h; 100 ppm spray, day before inoculation
Procedure, shortened: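 Wheat seedlings were sprayed to run-off with 100 ppm compound suspended in water with 6% acetone and 250 ppm TREM 014 surfactant. Next day they were inoculated with Puccinia recondita var. tritici spores and held 24 h at saturated humidity, 20°. Rust pustules were rated after a further 7 days in a growth room.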

Erysiphe cichoracearum = assay: Cucumber powdery mildew control on sprayed cucumber seedlings (Example 80); format: in vivo; conditions: Golovinomyces cichoracearum, 168 h, 100 ppm spray, day before inoculation
Phytophthora infestans = assay: whole plant or invertebrate; format: in vivo; conditions: Phytophthora infestans, in Solanum lycopersicum, 168 h, read-out: % Control of Tomato Late Blight, 100 ppm spray, day before inoculation
Pythium aphanadermatum [2] = assay: Pythium control on corn, seed coating (Example 92); format: in vivo; conditions: 504 h, 2 gm/kg seed
Procedure: Several compounds of the previous examples were incorporated into a proprietary formulation and used to coat corn seeds at a rate of 2 gm/kg seed. After being thoroughly coated, the seeds were allowed to air dry at room temperature. The seeds were then planted into soil amended with a mixture of the fungus Pythium aphanadermatum, sand, and corn meal at a rate sufficient to kill most untreated seeds. The seeds were held at 49° F. for 2 weeks and then at 70° F. for 1 additional week. After this time disease ratings were made.

Pythium aphanadermatum [3] = assay: Pythium control on cotton, seed coating (Example 91); format: in vivo; conditions: 168 h, 2 gm/kg seed
Description: Several compounds of the previous examples were incorporated into a proprietary formulation and used to coat cotton seeds at a rate of 2 gm/kg seed. After being thoroughly coated, the seeds were allowed to air dry at room temperature. The cotton seeds were then planted into soil amended with the fungus Pythium aphanadermatum, sand, and corn meal at a rate sufficient to kill most untreated seeds. The seeds were held at room temperature for 1 week, after which time disease ratings were made.

Erysiphe graminis = assay: Barley powdery mildew control on sprayed barley seedlings (Example 81); format: in vivo; conditions: Blumeria graminis, 168 h; 100 ppm spray, day before inoculation
Procedure: The compounds of the previous examples were again dissolved in acetone in an amount equal to 6% of the final volume and then suspended at a concentration of 100 ppm in purified water containing 250 ppm of the surfactant TREM 014 (polyhydric alcohol esters). These suspensions were sprayed to the point of run-off on barley seedlings. The following day, the plants were inoculated with a spore suspension of the fungus Erysiphe graminis, causal agent of barley powdery mildew, and incubated in growth room for 7 days. Disease ratings were then made. Treated plants from successful treatments had little or no powdery mildew in contrast to untreated plants which were covered with powdery mildew.

cucumber seedlings = assay: Phytotoxicity on cucumber seedlings (Example 80); format: in vivo; parameters: key: G = growth reduction; H = hormonal effects; conditions: 100 ppm spray
Procedure: The compounds of the previous example were again dissolved in acetone in an amount equal to 6% of the final volume and then suspended at a concentration of 100 ppm in purified water containing 250 ppm of the surfactant TREM 014 (polyhydric alcohol esters). These suspensions were sprayed to the point of run-off, on cucumber seedlings. The following day, the plants were inoculated with a spore suspension of the fungus Erysiphe cichoracearum, causal agent of cucumber powdery mildew, and incubated in a growth room for 7 days. Disease ratings were then made. Treated plants from successful treatments had little or no powdery mildew in contrast to untreated plants which were covered with powdery mildew. Phytotoxicity in the form of growth reduction or hormonal effects was observed on some of the plants in association with disease control.

## CCCC[Si](C)(Cn1cncn1)c1ccc(-c2ccccc2)cc1 (centres unmarked) [(1,1'-Biphenyl-4-yl)butyl(methyl)(1H-1,2,4-triazol-1-ylmethyl)silane]
Pyricularia oryzae
  pest or weed control at 100 ppm: 100%
Helminthosporium maydis
  pest or weed control at 100 ppm: 50%
Venturia inaequalis
  pest or weed control at 100 ppm: 80%
Rhizoctonia solani
  pest or weed control at 100 ppm: 80%
Cercospora arachidicola
  pest or weed control at 100 ppm: 100%
Monilinia fructicola
  inhibition of growth at 100 µg/mL: 0%
[1]
  pest or weed control at 100 ppm: 90%
Erysiphe cichoracearum
  pest or weed control at 100 ppm: 100%
Phytophthora infestans
  pest or weed control at 100 ppm: 0%

## C[Si](C)(Cn1cncn1)c1ccc(-c2ccccc2)cc1 [(1,1'-Biphenyl-4-yl)dimethyl(1H-1,2,4-triazol-1-ylmethyl)silane]
Helminthosporium maydis
  pest or weed control at 100 ppm: 90%
Venturia inaequalis
  pest or weed control at 100 ppm: 100%
Cercospora arachidicola
  pest or weed control at 100 ppm: 100%
Pythium aphanadermatum [2]
  pest or weed control at 2 g/kg seed: 30%
Monilinia fructicola
  inhibition of growth at 100 µg/mL: 100%
[1]
  pest or weed control at 100 ppm: 100%
Pythium aphanadermatum [3]
  pest or weed control at 2 g/kg seed: 12%
Erysiphe cichoracearum
  pest or weed control at 100 ppm: 100%

## C[Si](C)(Cn1cnnc1)c1ccc(-c2ccccc2)cc1 [(1,1'-Biphenyl-4-yl)dimethyl(4H-1,2,4-triazol-4-ylmethyl)silane]
Pyricularia oryzae
  pest or weed control at 100 ppm: 0%
Helminthosporium maydis
  pest or weed control at 100 ppm: 100%
Venturia inaequalis
  pest or weed control at 100 ppm: 80%
Rhizoctonia solani
  pest or weed control at 100 ppm: 0%
Cercospora arachidicola
  pest or weed control at 100 ppm: 0%
Monilinia fructicola
  inhibition of growth at 100 µg/mL: 96%
[1]
  pest or weed control at 100 ppm: 0%
Erysiphe cichoracearum
  pest or weed control at 100 ppm: 90%
Phytophthora infestans
  pest or weed control at 100 ppm: 0%
Erysiphe graminis
  pest or weed control at 100 ppm: 0%

## C[Si](Cn1cncn1)(c1ccccc1)c1ccc(-c2ccccc2)cc1 (centres unmarked) [(1,1'-Biphenyl-4-yl)methyl(phenyl)(1H-1,2,4-triazol-1-ylmethyl)silane]
Pyricularia oryzae
  pest or weed control at 100 ppm: 0%
Helminthosporium maydis
  pest or weed control at 100 ppm: 90%
Venturia inaequalis
  pest or weed control at 100 ppm: 100%
Rhizoctonia solani
  pest or weed control at 100 ppm: 0%
Cercospora arachidicola
  pest or weed control at 100 ppm: 100%
Pythium aphanadermatum [2]
  pest or weed control at 2 g/kg seed: 0%
[1]
  pest or weed control at 100 ppm: 100%
Pythium aphanadermatum [3]
  pest or weed control at 2 g/kg seed: 0%
Erysiphe cichoracearum
  pest or weed control at 100 ppm: 100%
Phytophthora infestans
  pest or weed control at 100 ppm: 0%

## c1ccc([Si](Cn2cncn2)(c2ccccc2)c2ccccc2)cc1 [(1H-1,2,4-Triazol-1-ylmethyl)triphenylsilane]
Pyricularia oryzae
  pest or weed control at 100 ppm: 0%
Helminthosporium maydis
  pest or weed control at 100 ppm: 0%
Venturia inaequalis
  pest or weed control at 100 ppm: 0%
Rhizoctonia solani
  pest or weed control at 100 ppm: 0%
Cercospora arachidicola
  pest or weed control at 100 ppm: 0%
[1]
  pest or weed control at 100 ppm: 0%
Erysiphe cichoracearum
  pest or weed control at 100 ppm: 100%
Phytophthora infestans
  pest or weed control at 100 ppm: 0%
Erysiphe graminis
  pest or weed control at 100 ppm: 100%

## CCCC[Si](C)(Cn1cncn1)c1ccc(F)cc1 (centres unmarked) [Butyl(4-fluorophenyl)methyl(1H-1,2,4-triazol-1-ylmethyl)silane]
Pyricularia oryzae
  pest or weed control at 100 ppm: 100%
Helminthosporium maydis
  pest or weed control at 100 ppm: 0%
Venturia inaequalis
  pest or weed control at 100 ppm: 100%
Rhizoctonia solani
  pest or weed control at 100 ppm: 80%
Cercospora arachidicola
  pest or weed control at 100 ppm: 0%
Pythium aphanadermatum [2]
  pest or weed control at 2 g/kg seed: 0%
Monilinia fructicola
  inhibition of growth at 100 µg/mL: 100%
[1]
  pest or weed control at 100 ppm: 0%
Pythium aphanadermatum [3]
  pest or weed control at 2 g/kg seed: 0%
Erysiphe cichoracearum
  pest or weed control at 100 ppm: 100%
Phytophthora infestans
  pest or weed control at 100 ppm: 0%

## CCCC[Si](C)(CCCC)Cn1cncn1 [Dibutyl(methyl)(1H-1,2,4-triazol-1-ylmethyl)silane]
Pyricularia oryzae
  pest or weed control at 100 ppm: 80%
Helminthosporium maydis
  pest or weed control at 100 ppm: 0%
Venturia inaequalis
  pest or weed control at 100 ppm: 0%
Rhizoctonia solani
  pest or weed control at 100 ppm: 0%
Cercospora arachidicola
  pest or weed control at 100 ppm: 0%
Monilinia fructicola
  inhibition of growth at 100 µg/mL: 81%
[1]
  pest or weed control at 100 ppm: 0%
Erysiphe cichoracearum
  pest or weed control at 100 ppm: 0%
Phytophthora infestans
  pest or weed control at 100 ppm: 0%

## COc1ccc([Si](C)(C)Cn2cncn2)cc1 [Dimethyl(4-methoxyphenyl)(1H-1,2,4-triazol-1-ylmethyl)silane]
Pyricularia oryzae
  pest or weed control at 100 ppm: 0%
Helminthosporium maydis
  pest or weed control at 100 ppm: 90%
Venturia inaequalis
  pest or weed control at 100 ppm: 100%
Rhizoctonia solani
  pest or weed control at 100 ppm: 0%
Cercospora arachidicola
  pest or weed control at 100 ppm: 0%
Monilinia fructicola
  inhibition of growth at 100 µg/mL: 97%
[1]
  pest or weed control at 100 ppm: 0%
Pythium aphanadermatum [3]
  pest or weed control at 2 g/kg seed: 0%
Erysiphe cichoracearum
  pest or weed control at 100 ppm: 100%
Phytophthora infestans
  pest or weed control at 100 ppm: 0%
Erysiphe graminis
  pest or weed control at 100 ppm: 100%

## C[Si](C)(Cn1cncn1)c1ccccc1 [Dimethyl(phenyl)(1H-1,2,4-triazol-1-ylmethyl)silane]
Pyricularia oryzae
  pest or weed control at 100 ppm: 0%
Helminthosporium maydis
  pest or weed control at 100 ppm: 0%
Venturia inaequalis
  pest or weed control at 100 ppm: 0%
Cercospora arachidicola
  pest or weed control at 100 ppm: 0%
Monilinia fructicola
  inhibition of growth at 100 µg/mL: 89%
[1]
  pest or weed control at 100 ppm: 90%
Pythium aphanadermatum [3]
  pest or weed control at 2 g/kg seed: 0%
Erysiphe cichoracearum
  pest or weed control at 100 ppm: 100%
Phytophthora infestans
  pest or weed control at 100 ppm: 0%

## CC[Si](C)(C)Cn1cncn1 [Ethyldimethyl(1H-1,2,4-triazol-1-ylmethyl)silane]
Pyricularia oryzae
  pest or weed control at 100 ppm: 0%
Helminthosporium maydis
  pest or weed control at 100 ppm: 0%
Venturia inaequalis
  pest or weed control at 100 ppm: 0%
Cercospora arachidicola
  pest or weed control at 100 ppm: 0%
Pythium aphanadermatum [2]
  pest or weed control at 2 g/kg seed: 13%
[1]
  pest or weed control at 100 ppm: 0%
Pythium aphanadermatum [3]
  pest or weed control at 2 g/kg seed: 48%
Erysiphe cichoracearum
  pest or weed control at 100 ppm: 100%
Phytophthora infestans
  pest or weed control at 100 ppm: 0%

## C[Si](Cn1cncn1)(c1ccc(-c2ccccc2)cc1)c1ccc(-c2ccccc2)cc1 [bis(1,1'-Biphenyl-4-yl)(methyl)(1H-1,2,4-triazol-1-ylmethyl)silane]
Pyricularia oryzae
  pest or weed control at 100 ppm: 100%
Helminthosporium maydis
  pest or weed control at 100 ppm: 0%
Venturia inaequalis
  pest or weed control at 100 ppm: 0%
Rhizoctonia solani
  pest or weed control at 100 ppm: 90%
Cercospora arachidicola
  pest or weed control at 100 ppm: 80%
[1]
  pest or weed control at 100 ppm: 80%
Pythium aphanadermatum [3]
  pest or weed control at 2 g/kg seed: 0%
Erysiphe cichoracearum
  pest or weed control at 100 ppm: 100%
Phytophthora infestans
  pest or weed control at 100 ppm: 0%

## O[Si](Cn1cncn1)(c1ccc(Cl)cc1)c1ccc(Cl)cc1 [bis(4-Chlorophenyl)hydroxy(1H-1,2,4-triazol-1-ylmethyl)silane]
Pyricularia oryzae
  pest or weed control at 100 ppm: 0%
Helminthosporium maydis
  pest or weed control at 100 ppm: 90%
Venturia inaequalis
  pest or weed control at 100 ppm: 100%
Rhizoctonia solani
  pest or weed control at 100 ppm: 0%
Cucumber seedlings
  Phytotoxicity on cucumber: H
Cercospora arachidicola
  pest or weed control at 100 ppm: 100%
[1]
  pest or weed control at 100 ppm: 90%
Erysiphe cichoracearum
  pest or weed control at 100 ppm: 100%
Phytophthora infestans
  pest or weed control at 100 ppm: 0%

## O[Si](Cn1cncn1)(c1ccc(F)cc1)c1ccc(F)cc1 [bis(4-Fluorophenyl)hydroxy(1H-1,2,4-triazol-1-ylmethyl)silane]
Pyricularia oryzae
  pest or weed control at 100 ppm: 0%
Helminthosporium maydis
  pest or weed control at 100 ppm: 100%
Venturia inaequalis
  pest or weed control at 100 ppm: 100%
Rhizoctonia solani
  pest or weed control at 100 ppm: 0%
Cucumber seedlings
  Phytotoxicity on cucumber: H
Cercospora arachidicola
  pest or weed control at 100 ppm: 100%
[1]
  pest or weed control at 100 ppm: 90%
Erysiphe cichoracearum
  pest or weed control at 100 ppm: 100%
Phytophthora infestans
  pest or weed control at 100 ppm: 0%
